According to PubChem BioAssay (NCI):
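Cultured in 96-well plates, cells were exposed to test compound for 48 hours across five concentrations. The concentration for 50% growth inhibition is given as GI50. TGI is the concentration that stops growth completely.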

These compounds were tested on SK-OV-3 ovarian (assay: NCI anticancer screen, dose series, 48 h).

Row | Compound | GI50 | TGI
1 | NC(Cc1c[nH]c2c(O)cccc12)C(=O)O (stereo not drawn) | > 100 µM | > 100 µM

Each compound was assayed on 786-0 renal (assay: NCI anticancer screen, dose series, 48 h).

Row | Compound | GI50 | TGI
2 | O=S(=O)(NC1=NCCN1C(=S)SN1CCn2c1nsc2=S)c1ccc(OC(F)(F)F)cc1 | 8.53 µM | 21.6 µM
3 | CCOC(=O)N1CCC2(CC1)C[C@](C)(C(C)=O)C(C)O2 (stereo partly drawn) | – | > 100 µM
4 | COc1cc2c(cc1OC)C(c1ccccc1CCCCl)=NCC2 | – | > 100 µM
5 | COc1cc([C@@H]2c3cc4c(cc3[C@@H](Nc3ccc([N+](=O)[O-])cc3C(=O)c3ccccc3)[C@H]3COC(=O)[C@H]23)OCO4)cc(OC)c1OC | – | > 100 µM
6 | NC(Cc1c[nH]c2c(O)cccc12)C(=O)O (stereo not drawn) | > 100 µM | > 100 µM

The compounds below were run on MOLT-4 leukemia (assay: NCI anticancer screen, dose series, 48 h).

Row | Compound | GI50 | TGI
7 | O=S(=O)(NC1=NCCN1C(=S)SN1CCn2c1nsc2=S)c1ccc(OC(F)(F)F)cc1 | 2.04 µM | 7.39 µM
8 | CCOC(=O)N1CCC2(CC1)C[C@](C)(C(C)=O)C(C)O2 (stereo partly drawn) | – | > 100 µM
9 | COc1cc2c(cc1OC)C(c1ccccc1CCCCl)=NCC2 | – | > 100 µM
10 | COc1cc([C@@H]2c3cc4c(cc3[C@@H](Nc3ccc([N+](=O)[O-])cc3C(=O)c3ccccc3)[C@H]3COC(=O)[C@H]23)OCO4)cc(OC)c1OC | – | > 100 µM
11 | NC(Cc1c[nH]c2c(O)cccc12)C(=O)O (stereo not drawn) | > 100 µM | > 100 µM

The compounds below were run on MDA-MB-435 (assay: NCI anticancer screen, dose series, 48 h).

Row | Compound | GI50 | TGI
12 | O=S(=O)(NC1=NCCN1C(=S)SN1CCn2c1nsc2=S)c1ccc(OC(F)(F)F)cc1 | 4.47 µM | 24.5 µM
13 | CCOC(=O)N1CCC2(CC1)C[C@](C)(C(C)=O)C(C)O2 (stereo partly drawn) | – | > 100 µM
14 | COc1cc2c(cc1OC)C(c1ccccc1CCCCl)=NCC2 | – | 45.9 µM
15 | COc1cc([C@@H]2c3cc4c(cc3[C@@H](Nc3ccc([N+](=O)[O-])cc3C(=O)c3ccccc3)[C@H]3COC(=O)[C@H]23)OCO4)cc(OC)c1OC | – | 0.319 µM
16 | NC(Cc1c[nH]c2c(O)cccc12)C(=O)O (stereo not drawn) | > 100 µM | > 100 µM

These compounds were tested on UO-31 renal (assay: NCI anticancer screen, dose series, 48 h).

Row | Compound | GI50 | TGI
17 | O=S(=O)(NC1=NCCN1C(=S)SN1CCn2c1nsc2=S)c1ccc(OC(F)(F)F)cc1 | 20.5 µM | 41.5 µM
18 | CCOC(=O)N1CCC2(CC1)C[C@](C)(C(C)=O)C(C)O2 (stereo partly drawn) | – | > 100 µM
19 | COc1cc2c(cc1OC)C(c1ccccc1CCCCl)=NCC2 | – | > 100 µM
20 | NC(Cc1c[nH]c2c(O)cccc12)C(=O)O (stereo not drawn) | > 100 µM | > 100 µM

These compounds were tested on RPMI-8226 leukemia (assay: NCI anticancer screen, dose series, 48 h).

Row | Compound | GI50 | TGI
21 | C=C(C)[C@@H]1CCC[C@]2(COS(=O)(=O)c3ccc(C)cc3)CC[C@]3(C)[C@@H](CC[C@@H]4[C@@]5(C)CCCNC(C)(C)[C@@H]5CC[C@]43C)[C@@H]12 | 1.86 µM | 4.54 µM
22 | O=S(=O)(NC1=NCCN1C(=S)SN1CCn2c1nsc2=S)c1ccc(OC(F)(F)F)cc1 | 6.1 µM | > 100 µM
23 | CCOC(=O)N1CCC2(CC1)C[C@](C)(C(C)=O)C(C)O2 (stereo partly drawn) | – | > 100 µM
24 | COc1cc2c(cc1OC)C(c1ccccc1CCCCl)=NCC2 | – | 42 µM
25 | COc1cc([C@@H]2c3cc4c(cc3[C@@H](Nc3ccc([N+](=O)[O-])cc3C(=O)c3ccccc3)[C@H]3COC(=O)[C@H]23)OCO4)cc(OC)c1OC | – | > 100 µM
26 | NC(Cc1c[nH]c2c(O)cccc12)C(=O)O (stereo not drawn) | > 100 µM | > 100 µM

Each compound was assayed on KM12 colon (assay: NCI anticancer screen, dose series, 48 h).

Row | Compound | GI50 | TGI
27 | O=S(=O)(NC1=NCCN1C(=S)SN1CCn2c1nsc2=S)c1ccc(OC(F)(F)F)cc1 | 8.11 µM | 22.8 µM
28 | CCOC(=O)N1CCC2(CC1)C[C@](C)(C(C)=O)C(C)O2 (stereo partly drawn) | – | > 100 µM
29 | COc1cc2c(cc1OC)C(c1ccccc1CCCCl)=NCC2 | – | > 100 µM
30 | COc1cc([C@@H]2c3cc4c(cc3[C@@H](Nc3ccc([N+](=O)[O-])cc3C(=O)c3ccccc3)[C@H]3COC(=O)[C@H]23)OCO4)cc(OC)c1OC | – | > 100 µM
31 | NC(Cc1c[nH]c2c(O)cccc12)C(=O)O (stereo not drawn) | > 100 µM | > 100 µM

The compounds below were run on HL-60(TB) leukemia (assay: NCI anticancer screen, dose series, 48 h).

Row | Compound | GI50 | TGI
32 | O=S(=O)(NC1=NCCN1C(=S)SN1CCn2c1nsc2=S)c1ccc(OC(F)(F)F)cc1 | 2.88 µM | 7.35 µM
33 | CCOC(=O)N1CCC2(CC1)C[C@](C)(C(C)=O)C(C)O2 (stereo partly drawn) | – | 17.8 µM
